From patent publication US8361715B2, “Method for suppressing a FRET signal, FRET signal suppressor agents and use in a method for multiplexing biological events” (CIS Bio International, priority 2006, dated 2013)

How the values were obtained:
[1] = test system: trisbipyridine cryptate TBP; settings: TBP donor, d2 acceptor; 20 mM; incubation 16 h at ambient temperature
Protocol: Two identical experiments aimed at detecting a GST-biotin protein were carried out. In each of the experiments, a particular rare earth complex was used as FRET donor: either the trisbipyridine cryptate TBP or a terbium chelate sold in a form conjugated to an anti-GST antibody by the company Invitrogen (Cat no. PV3568).
The biotinylated GST protein was dispensed into a 96-well plate. Its presence was detected by FRET between the donor (the TBP or the terbium chelate) (carried by an anti-GST antibody) and the d2 acceptor (carried by streptavidin), after incubation for 16 h at ambient temperature in the presence or absence of 20 mM of manganese chloride (MnCl2) or of EDTA. A time-resolved fluorescence measurement is carried out (td=50 μs, tg=400 μs) at 620 nm and 665 nm (respectively E620 and E665) on a Rubystar® machine (BMG Labtech). Based on the fluorescence intensity values, E620 and E665, the E665/E620 intensity ratio is calculated and multiplied by 10 000 for greater convenience. […] In order to compare the delta F values obtained in the various media for the same donor, said values are normalized relative to the delta F obtained in buffer (100%).

europium cryptate TBP = experiment: FRET between TBP donor and d2 acceptor (biotinylated GST detection) with uric acid; settings: TBP donor, 60 μM, incubation 16 h at ambient temperature
Protocol: (§1) In each of the experiments, a particular rare earth complex was used as FRET donor: either the trisbipyridine cryptate TBP or a pyridine-bis(bipyridine) cryptate PBP4COOH of formula: […]
(§2) Its presence was detected via FRET between the donor (the TBP or PBP4COOH) (carried by the anti-GST antibody) and the d2 acceptor (carried by streptavidin), after incubation for 16 h at ambient temperature in the presence or absence of 60 μM of uric acid. A time-resolved fluorescence measurement (td=50 μs, tg=400 μs) is carried out at 620 nm and 665 nm (E620 and E665, respectively) on a Rubystar® machine (BMG Labtech).
(§3) • 1.25 nM biotinylated GST; 2 nM anti-GST; 5 nM streptavidin; • 60 μm uric acid. Final reaction volume: 200 μl Buffer: 100 mM phosphate, pH 7.0, 0.10% BSA. Results

[2] = test system: pyridine-bis(bipyridine) cryptate PBP4COOH; experiment: FRET between PBP4COOH donor and d2 acceptor (biotinylated GST detection) with uric acid; settings: PBP4COOH donor, 60 μM, incubation 16 h at ambient temperature
Protocol: as §1, §2, §3

Molecule	FRET signal (normalized delta F) [1]	FRET signal inhibited (europium cryptate TBP)	FRET signal (normalized delta F) [2]
O=C(O)CN(CCN(CC(=O)O)CC(=O)O)CC(=O)O [EDTA]	does not modify	–	–
O=c1[nH]c(=O)c2[nH]c(=O)[nH]c2[nH]1 [uric acid]	–	more than 85%	does not modify
manganese chloride [MnCl2]	does not modify	–	–
